Data published in patent US20130029989A1, “TOPICAL TREATMENTS FOR PAIN” (The Royal Institution for the Advancement of …, priority 2010, published 2013).

Assays:
Type in all cases: in vivo, rat
CPIP rats [1] = experiment: Mechanical allodynia (von Frey paw withdrawal threshold) after topical ointment in CPIP rats (model of CRPS-I); conditions: for anti-allodynic effect (PWT to von Frey hair stimulation): single drug; for effectiveness of the agent when administered topically in the combinations: apraclonidine 0.005%, clonidine 0.0075%, lisofylline 0.0078%-0.075%, pentoxifylline 0.3 or 0.6%, linsidomine 0.4%
Method: Ointment type analgesic formulations containing the above-mentioned drugs were prepared according to standard pharmaceutical procedures. The ointments were formulated using a composite, water-soluble polyethylene glycol base system employing carbowax (PEG 3350) and PEG 400 in the ratio of 60:40 respectively. The water-soluble base system was selected due to its non-sticky nature. Briefly, the required amounts of the active ingredients were first weighed out and then added to the already molten base in decreasing order of their melting points, and stirred well. After uniform melting, the formulation was brought to room temperature to ensure proper solidification. A standard amount of 150 mg (mean±SEM=150.88+2.7 mg) of the ointment was used for all rat hind paw applications throughout the experimental procedure, and half this amount for mouse hind paw application.
(§1) Chronic post-ischemia pain (CPIP) was generated following exposure to prolonged hind paw ischemia and reperfusion (Coderre et al., Pain, 112(1):94-105, 2004). Briefly, rats were anesthetized over a 3 h period with a bolus (55 mg/kg, i.p.) followed by chronic i.p. infusion of sodium pentobarbital for 2 h at a rate of 0.15 mL/h. After induction of anesthesia, a Nitrile 70 Durometer O-ring (O-rings West, Seattle, Wash.) with 5.5 mm internal diameter was placed around the rat's left hind limb proximal to the ankle joint. The tight-fitting O-rings produce a complete blockade of arterial blood flow as measured using laser Doppler flowmetry. The ring was then left in place for 3 h. The termination of sodium pentobarbital anesthesia was timed so that the rats recovered fully within 30-60 min following reperfusion. Rats were tested between 2 and 14 days post-IR injury.
(§2) The plantar surface of the ipsilateral hind paw was tested for mechanical allodynia in CPIP and CCI rats. Nylon monofilaments were applied in either ascending (after negative response) or descending (after positive response) force as necessary to determine the filament closest to the threshold of response. Each filament was applied for 10 s or until a flexion reflex occurred. The minimum stimulus intensity was 1 g and the maximum was 15 g. Based on the response pattern, and the force of the final filament (5th stimulus after first direction change), the 50% threshold (grams) was calculated as (10[Xf+kδ])/10000 where Xf=filament number of the final von Frey hair used, k=value for the pattern of positive/negative responses and δ=mean difference in log unit between stimuli (here, δ=0.220, for more details see Chaplan et al., J. Neurosci. Methods, 53(1):55-63, 1994). Mechanical sensitivities were assessed prior to and following several pharmacological treatments.
The topical formulations containing a nitric oxide donor, an α2-adrenergic agonist or a phosphatidic acid inhibitor were tested for their anti-allodynic effects either singly or in combination with each other in definite proportions at concentrations for single agents selected from the published literature in different animal models of pain. Accordingly, the rats received 150 mg of the respective ointment with the first half on the plantar aspect of their hind paws followed by the second half applied on the dorsal surface; in both cases by uniform gentle application using fingers.
In separate groups of rats, formulations containing pentoxifylline or lisofylline were tested in specific drug combinations with constant percentage amounts of clonidine, linsidomine, SNAP or apraclonidine. […] Accordingly, the formulations tested in the combination trials included clonidine (0.0075% W/W) with pentoxifylline (0.3, 0.6 and 1.2% WAN), linsidomine (0.4% W/W) with pentoxifylline (0.075, 0.15 and 0.3% W/W), linsidomine (0.4% W/W) with lisofylline (0.03175, 0.0625 and 0.075% W/W), SNAP (0.0625% W/W) with lisofylline (0.008, 0.015, 0.033 and 0.063% W/W) and apraclonidine (0.005% W/W) with lisofylline (0.0078, 0.0156 and 0.0313% W/W). […]

CPIP rats [2] = experiment: Mechanical allodynia (von Frey PWT) in CPIP rats after systemic pentoxifylline; conditions: vs vehicle
Method: as §1, with “The termination of sodium pentobarbital anesthesia was timed so that the rats recovered fully within 30-60 min following reperfusion. Rats were tested between 2 and 14 days post-IR injury.” left out
as §2, with “Nylon monofilaments were applied in either ascending (after negative response) or descending (after positive response) force as necessary to determine the filament closest to the threshold of response. Each filament was applied for 10 s or until a flexion reflex occurred. The minimum stimulus intensity was 1 g and the maximum was 15 g.” left out

sham rats = experiment: Laser Doppler post-occlusive reactive hyperemia in sham rats, systemic pentoxifylline; conditions: 25 mg/kg i.p.
Method: Plantar blood flow and post-occlusive reactive hyperemia were measured using a laser Doppler perfusion and temperature monitor (DRT4, Moor Instruments, Wilmington, Del.) to assess microvascular function (Morales et al., Microvasc. Res., 69(1-2):17-23, 2005). Briefly, rats (n=6 for each group) were anesthetized with bolus (1 g/kg) and maintenance doses (200 mg/kg prn) of urethane, and placed in the prone position. Body temperature was monitored through a rectal thermometer coupled to a heating pad (FHC, Bowdoinham, Me.), and was maintained between 37.5° C. and 39.0° C. throughout the experiment. The plantar blood flow of the ipsilateral hind paw was monitored using a laser-emitting probe placed in between the tori pads of the hind paw, along the midline. […] At the rate of one sample per second, an initial 10 minute baseline blood flux was recorded, followed by a 2 minute occlusion induced by pressurizing and inflating a tight fitting loop of Tygon® R 3603 tubing (outside diameter=2.38 mm, inside diameter=0.79 mm, wall thickness=0.79 mm) connected to an air-filled pump-driven 60 mL syringe (Model 11, Harvard Apparatus, Montreal, QC), creating a tourniquet around the ankle joint. […] Post-occlusive reactive hyperemia was monitored by continuously sampling flux at the rate of 1/sec for 2 min following the onset of reperfusion. […]

CPIP rats [3] = experiment: Laser Doppler post-occlusive reactive hyperemia in CPIP rats, systemic pentoxifylline; conditions: 25 mg/kg i.p.
Method: as §1, with “The termination of sodium pentobarbital anesthesia was timed so that the rats recovered fully within 30-60 min following reperfusion. Rats were tested between 2 and 14 days post-IR injury.” left out
Plantar blood flow and post-occlusive reactive hyperemia were measured using a laser Doppler perfusion and temperature monitor (DRT4, Moor Instruments, Wilmington, Del.) to assess microvascular function (Morales et al., Microvasc. Res., 69(1-2):17-23, 2005). […] Body temperature was monitored through a rectal thermometer coupled to a heating pad (FHC, Bowdoinham, Me.), and was maintained between 37.5° C. and 39.0° C. throughout the experiment. The plantar blood flow of the ipsilateral hind paw was monitored using a laser-emitting probe placed in between the tori pads of the hind paw, along the midline. […]

CC(=O)N[C@H](C(=O)O)C(C)(C)SN=O [SNAP, S-nitroso-N-acetyl-penicillamine]
anti-allodynic effect (PWT to von Frey hair stimulation) (CPIP rats [1]; topical ipsilateral, 0.0625% W/W (lowest)): inactive | anti-allodynic effect (PWT to von Frey hair stimulation) (CPIP rats [1]; topical ipsilateral, all concentrations except the lowest (0.125, 0.25 and 0.5% W/W)): significant effects

Nc1cc(Cl)c(N=C2NCCN2)c(Cl)c1 [apraclonidine]
effectiveness of the agent when administered topically in the combinations (CPIP rats [1]): highly effective | anti-allodynic effect (PWT to von Frey hair stimulation) (CPIP rats [1]; topical ipsilateral, 0.005% W/W (lowest)): inactive | anti-allodynic effect (PWT to von Frey hair stimulation) (CPIP rats [1]; topical ipsilateral, all concentrations except the lowest (0.01, 0.02 and 0.04% W/W)): effective against mechanical allodynia

Clc1cccc(Cl)c1N=C1NCCN1 [clonidine]
effectiveness of the agent when administered topically in the combinations (CPIP rats [1]): highly effective | anti-allodynic effect (PWT to von Frey hair stimulation) (CPIP rats [1]; topical ipsilateral, 0.0075% W/W): inactive | anti-allodynic effect (PWT to von Frey hair stimulation) (CPIP rats [1]; topical ipsilateral, 0.03% W/W): significant anti-allodynic effects | anti-allodynic effect (PWT to von Frey hair stimulation) (CPIP rats [1]; topical ipsilateral, 0.06% W/W): significant anti-allodynic effects

[NH-]c1c[n+](N2CCOCC2)no1 [linsidomine]
effectiveness of the agent when administered topically in the combinations (CPIP rats [1]): highly effective | anti-allodynic effect (PWT to von Frey hair stimulation) (CPIP rats [1]; topical ipsilateral, 0.4% W/W): inactive | anti-allodynic effect (PWT to von Frey hair stimulation) (CPIP rats [1]; topical ipsilateral, 0.8% W/W, post drug vs pre-drug): significantly different from their pre-drug values | anti-allodynic effect (PWT to von Frey hair stimulation) (CPIP rats [1]; topical ipsilateral, 1.6% W/W, post drug vs pre-drug): significantly different from their pre-drug values

C[C@@H](O)CCCCn1c(=O)c2c(ncn2C)n(C)c1=O [lisofylline]
effectiveness of the agent when administered topically in the combinations (CPIP rats [1]): highly effective | anti-allodynic effect (PWT to von Frey hair stimulation) (CPIP rats [1]; topical ipsilateral, lowest concentration 0.063% W/W): inactive | anti-allodynic effect (PWT to von Frey hair stimulation) (CPIP rats [1]; topical ipsilateral, the three higher concentrations (0.09, 0.125 and 0.25% W/W)): only the lowest concentration (0.063% W/W) was observed to be inactive

CC(=O)CCCCn1c(=O)c2c(ncn2C)n(C)c1=O [pentoxifylline]
allodynia (PWT to von Frey hair stimulation) (CPIP rats [2]; 25 mg/kg): attenuated allodynia | allodynia (PWT to von Frey hair stimulation) (CPIP rats [2]; 50 mg/kg): attenuated allodynia | effectiveness of the agent when administered topically in the combinations (CPIP rats [1]): highly effective | anti-allodynic effect (PWT to von Frey hair stimulation) (CPIP rats [1]; topical ipsilateral hind paw, 5% W/W, 45 min post-application): significantly attenuated mechanical allodynia | anti-allodynic effect (PWT to von Frey hair stimulation) (CPIP rats [1]; topical ipsilateral, 0.6% W/W): devoid of any effect | anti-allodynic effect (PWT to von Frey hair stimulation) (CPIP rats [1]; topical ipsilateral, 1.2% W/W): devoid of any effect | effect on normal post-occlusive reactive hyperemia (sham rats): no effect | effect on delayed post-occlusive reactive hyperemia (microvascular dysfunction) (CPIP rats [3]): reversed
